Positions of bridges follow the written chain, without caps; N, C: chain ends. Non-standard residues stand in square brackets, D forms with d. Residues, ends and D or L forms follow the SMILES beside them. pGlu = O=C1CC[C@@H](C(=O)O)N1
Columns and labels:
Homo sapiens [1] = species on record: Homo sapiens; assay: Liver toxicity in human assessed as induction of drug-induced liver injury by measuring verified drug-induced liver injury concern status
Homo sapiens [2] = species on record: Homo sapiens; assay: Liver toxicity in human assessed as induction of drug-induced liver injury by measuring severity class index
Throughout, for DILI severity class: key of the grades not given here.

Compound | DILI_Concern (Homo sapiens [1]) | DILI_severity_class (Homo sapiens [2])
Cc1c(-c2ccccc2)oc2c(C(=O)OCCN3CCCCC3)cccc2c1=O [FLAVOXATE] | No-Dili-Concern | 0
CC1COc2c(N3CCN(C)CC3)c(F)cc3c(=O)c(C(=O)O)cn1c23 (stereo not given) [OFLOXACIN] | Less-Dili-Concern | 3
CC(C)(O)c1ccccc1CC[C@@H](SCC1(CC(=O)O)CC1)c1cccc(/C=C/c2ccc3ccc(Cl)cc3n2)c1 [MONTELUKAST] | Less-Dili-Concern | 3
CN(C)CCC[C@@]1(c2ccc(F)cc2)OCc2cc(C#N)ccc21 [ESCITALOPRAM] | Less-Dili-Concern | 7
Cc1ccc(Cl)c(Nc2ccccc2C(=O)O)c1Cl [MECLOFENAMIC ACID] | Ambiguous-Dili-Concern | 3
CCC1=C(C)CN(C(=O)NCCc2ccc(S(=O)(=O)NC(=O)N[C@H]3CC[C@H](C)CC3)cc2)C1=O [GLIMEPIRIDE] | Less-Dili-Concern | 7
O=C(O)CN(CCN(CC(=O)O)CC(=O)O)CC(=O)O [EDETIC ACID] | Ambiguous-Dili-Concern | 3
N[C@@H]1C[C@H]1c1ccccc1.N[C@H]1C[C@@H]1c1ccccc1 [TRANYLCYPROMINE] | Less-Dili-Concern | 3
CC(C)NCC(O)COc1cccc2[nH]ccc12 (stereo not given) [PINDOLOL] | No-Dili-Concern | 0
Nc1nc(=O)c2c([nH]1)NCC(CNc1ccc(C(=O)N[C@@H](CCC(=O)[O-])C(=O)[O-])cc1)N2C=O.[Ca+2] (stereo not given in full) [LEUCOVORIN CALCIUM] | No-Dili-Concern | 0
CCC(C)n1ncn(-c2ccc(N3CCN(c4ccc(OCC5COC(Cn6cncn6)(c6ccc(Cl)cc6Cl)O5)cc4)CC3)cc2)c1=O (stereo not given) [ITRACONAZOLE] | Most-Dili-Concern | 8
Cn1c(=O)c2c(ncn2C)n(C)c1=O [CAFFEINE] | No-Dili-Concern | 0
CC1=C(/C=C/C(C)=C/C=C/C(C)=C/C(=O)O)C(C)(C)CCC1 [TRETINOIN] | Ambiguous-Dili-Concern | 3
O=C(O)P(=O)(O)O [FOSCARNET] | Ambiguous-Dili-Concern | 3
Cc1nnc(SCC2=C(C(=O)O)N3C(=O)[C@@H](NC(=O)Cn4cnnn4)[C@H]3SC2)s1 [CEFAZOLIN] | Less-Dili-Concern | 3
C[C@@H]1C[C@H]2[C@@H]3CCC4=CC(=O)C=C[C@]4(C)[C@@]3(F)[C@@H](O)C[C@]2(C)[C@@]1(O)C(=O)CO [DEXAMETHASONE] | Ambiguous-Dili-Concern | 3
Cc1cc(C)cc(OCC2CNC(=O)O2)c1 (stereo not given) [METAXALONE] | Less-Dili-Concern | 5
c1ccc2[nH]c(-c3cscn3)nc2c1 [THIABENDAZOLE] | Most-Dili-Concern | 7
C=CCN1CC[C@]23c4c5ccc(O)c4O[C@H]2C(=O)CC[C@@]3(O)[C@H]1C5 [NALOXONE] | No-Dili-Concern | 0
CO[C@H]1/C=C/O[C@@]2(C)Oc3c(C)c(O)c4c(c3C2=O)C2=NC3(CCN(CC(C)C)CC3)NC2=C(NC(=O)/C(C)=C\C=C\[C@H](C)[C@H](O)[C@@H](C)[C@@H](O)[C@@H](C)[C@H](OC(C)=O)[C@@H]1C)C4=O [RIFABUTIN] | Less-Dili-Concern | 5
CC(=O)N[C@@H]1[C@@H](O[C@@H]2O[C@@H](C(=O)O)[C@@H](O)[C@H](O)[C@H]2O)[C@@H](OS(=O)(=O)O)[C@@H](CO)O[C@H]1O | Most-Dili-Concern | 8
CCC1(c2ccccc2)NC(=O)N(C)C1=O (stereo not given) [MEPHENYTOIN] | Ambiguous-Dili-Concern | 5
CC(C)CN(C[C@@H](O)[C@H](Cc1ccccc1)NC(=O)O[C@H]1CCOC1)S(=O)(=O)c1ccc(N)cc1 | Ambiguous-Dili-Concern | 3
CC[C@H](C)[C@@H]1NC(=O)[C@H](Cc2ccc(O)cc2)NC(=O)[C@@H](N)CSSC[C@@H](C(=O)N2CCC[C@H]2C(=O)N[C@@H](CC(C)C)C(=O)NCC(N)=O)NC(=O)[C@H](CC(N)=O)NC(=O)[C@H]([C@@H](C)O)NC1=O (H-CYITNCPLG-NH2; disulfide 1-6) | No-Dili-Concern | 0
NS(=O)(=O)c1cc(Cl)c(Cl)c(S(N)(=O)=O)c1 [DICHLORPHENAMIDE] | No-Dili-Concern | 0
CCCCCCCCCC(=O)N[C@@H](Cc1c[nH]c2ccccc12)C(=O)N[C@H](CC(N)=O)C(=O)N[C@@H](CC(=O)O)C(=O)N[C@@H]1C(=O)NCC(=O)N[C@@H](CCCN)C(=O)N[C@@H](CC(=O)O)C(=O)N[C@H](C)C(=O)N[C@@H](CC(=O)O)C(=O)NCC(=O)N[C@H](CO)C(=O)N[C@@H]([C@H](C)CC(=O)O)C(=O)N[C@@H](CC(=O)c2ccccc2N)C(=O)O[C@@H]1C [DAPTOMYCIN] | Less-Dili-Concern | 5
CC(C)(C)NC[C@H](O)COc1nsnc1N1CCOCC1 [TIMOLOL] | Ambiguous-Dili-Concern | 5
CCOC(=O)C1(c2ccccc2)CCN(C)CC1 [MEPERIDINE] | No-Dili-Concern | 0

Compound | DILI_Concern (Homo sapiens [1]) | DILI_severity_class (Homo sapiens [2])
CCN(CC)CCNC(=O)c1c(C)[nH]c(/C=C2\C(=O)Nc3ccc(F)cc32)c1C [SUNITINIB] | Most-Dili-Concern | 8
NCCCNCCSP(=O)(O)O [AMIFOSTINE] | No-Dili-Concern | 0
CCN(CC)C(C)C(=O)c1ccccc1 (stereo not given) [DIETHYLPROPION] | No-Dili-Concern | 0
CN(C)[C@@H]1C(O)=C(C(N)=O)C(=O)[C@@]2(O)C(O)=C3C(=O)c4c(O)cccc4[C@@](C)(O)[C@H]3[C@H](O)[C@@H]12 [OXYTETRACYCLINE] | Ambiguous-Dili-Concern | 2
CCOc1ccc2ccccc2c1C(=O)N[C@@H]1C(=O)N2[C@@H]1SC(C)(C)[C@@H]2C(=O)O [NAFCILLIN] | Less-Dili-Concern | 3
COCCCOc1ccnc(C[S+]([O-])c2nc3ccccc3[nH]2)c1C (stereo not given) [RABEPRAZOLE] | Less-Dili-Concern | 3
C[C@H]1C[C@@H]2[C@H]([C@@H](O)C[C@@]3(C)[C@H]2CC[C@]3(O)C(=O)CO)[C@@]2(C)C=CC(=O)C=C12 [METHYLPREDNISOLONE] | Less-Dili-Concern | 3
NC(=O)OCC(COC(N)=O)c1ccccc1 [FELBAMATE] | Most-Dili-Concern | 7
Cc1ncc([N+](=O)[O-])n1CCO [METRONIDAZOLE] | Less-Dili-Concern | 3
Cc1nnc(NS(=O)(=O)c2ccc(N)cc2)s1 [SULFAMETHIZOLE] | Less-Dili-Concern | 0
CCCCS(=O)(=O)N[C@@H](Cc1ccc(OCCCCC2CCNCC2)cc1)C(=O)O [TIROFIBAN] | No-Dili-Concern | 0
Nc1cc(N2CCCCC2)nc(N)[n+]1[O-] [MINOXIDIL] | No-Dili-Concern | 0
Cc1nccn1CC1CCc2c(c3ccccc3n2C)C1=O (stereo not given) [ONDANSETRON] | Less-Dili-Concern | 7
CC(=O)NO [ACETOHYDROXAMIC ACID] | Ambiguous-Dili-Concern | 3
C[C@H](/C=C/[C@H](C)C(C)(C)O)[C@H]1CC[C@H]2/C(=C/C=C3C[C@@H](O)C[C@H](O)C3)CCC[C@]12C [PARICALCITOL] | Ambiguous-Dili-Concern | 3
CCOC(=O)[C@H](CCc1ccccc1)N[C@@H](C)C(=O)N1CCC[C@H]1C(=O)O | Less-Dili-Concern | 7
CC(c1cc2ccccc2s1)N(O)C(N)=O (stereo not given) [ZILEUTON] | Most-Dili-Concern | 5
Nc1ncn([C@@H]2O[C@H](CO)[C@@H](O)[C@H]2O)c(=O)n1 [AZACITIDINE] | Ambiguous-Dili-Concern | 8
CSCC[C@H](NC(=O)[C@H](Cc1c[nH]c2ccccc12)NC(=O)CCNC(=O)OC(C)(C)C)C(=O)N[C@@H](CC(=O)O)C(=O)N[C@@H](Cc1ccccc1)C(N)=O [PENTAGASTRIN] | No-Dili-Concern | 0
C/C(=N\O)C(C)NCC(C)(C)CNC(C)/C(C)=N/O (stereo not given) [EXAMETAZIME] | No-Dili-Concern | 0
Nc1nc(Cl)nc2c1ncn2[C@@H]1O[C@H](CO)[C@@H](O)[C@@H]1F [CLOFARABINE] | Ambiguous-Dili-Concern | 8
CS(=O)(=O)OCCCCOS(C)(=O)=O [BUSULFAN] | Most-Dili-Concern | 8
CCCC(=O)Nc1ccc(OCC(O)CNC(C)C)c(C(C)=O)c1 (stereo not given) [ACEBUTOLOL] | Less-Dili-Concern | 3
CCNC(=O)[C@@H]1CCCN1C(=O)[C@H](CCCNC(=N)N)NC(=O)[C@H](CC(C)C)NC(=O)[C@H](CC(C)C)NC(=O)[C@H](Cc1ccc(O)cc1)NC(=O)[C@H](CO)NC(=O)[C@H](Cc1c[nH]c2ccccc12)NC(=O)[C@H](Cc1c[nH]cn1)NC(=O)[C@@H]1CCC(=O)N1 ([pGlu]HWSYLLRP-NHEt) | Less-Dili-Concern | 3
SEVELAMER | No-Dili-Concern | 0
CCC(=O)NCC[C@@H]1CCc2ccc3c(c21)CCO3 [RAMELTEON] | No-Dili-Concern | 0
CC(=O)[C@H]1CC[C@H]2[C@@H]3CCC4=CC(=O)CC[C@]4(C)[C@H]3CC[C@]12C [PROGESTERONE] | Less-Dili-Concern | 2

From ChEMBL document CHEMBL4028802, “DILIrank: the largest reference drug list ranked by the risk for developing drug-induced liver injury in humans” (Drug Discov Today, 2016)
